# Laboratory results taken from patent publication US20110082166A1, “NOVEL 4-BENZHYDRYL-TETRAHYDRO-PYRIDINE DERIVATIVES AND THEIR USE AS MONOAMINE NEUROTRANSMITTER RE-UPTAKE INHIBITORS” (NEUROSEARCH A/S, priority 2008, published 2011).
# Where a name gives a salt, the structure may show the parent alone. Read-outs that look alike come from different tables or passages of the source.
# Columns and labels:
# [1] = molecular target: T1, reuptake of noradrenaline (NA) in synaptosomes (Rattus norvegicus, UniProt Q63380); test: In vitro inhibition of NA reuptake in synaptosomes; type: biochemical
# T1 construct: in synaptosomes as described in WO 97/16451 (NeuroSearch A/S); from tissue
# [2] = molecular target: T2, reuptake of dopamine (DA) in synaptosomes (Rattus norvegicus, UniProt P23977); test: In vitro inhibition of DA reuptake in synaptosomes; type: biochemical
# T2 construct: in synaptosomes as described in WO 97/16451 (NeuroSearch A/S); from tissue
# [3] = molecular target: T3, reuptake of serotonine (5-HT) in synaptosomes (Rattus norvegicus, UniProt P31652); test: In vitro inhibition of 5-HT reuptake in synaptosomes; type: biochemical
# T3 construct: in synaptosomes as described in WO 97/16451 (NeuroSearch A/S); from tissue
# Protocol: Compounds were tested for their ability to inhibit the reuptake of the monoamine neurotransmitters dopamine (DA) noradrenaline (NA) and serotonine (5-HT) in synaptosomes as described in WO 97/16451 (NeuroSearch A/S).
# The test values are given as IC50 (the concentration (μM) of the test substance which inhibits the specific binding of ^3H-DA, ^3H-NA, or ^3H-5-HT by 50%).
# T3 sequence (P31652 whole entry): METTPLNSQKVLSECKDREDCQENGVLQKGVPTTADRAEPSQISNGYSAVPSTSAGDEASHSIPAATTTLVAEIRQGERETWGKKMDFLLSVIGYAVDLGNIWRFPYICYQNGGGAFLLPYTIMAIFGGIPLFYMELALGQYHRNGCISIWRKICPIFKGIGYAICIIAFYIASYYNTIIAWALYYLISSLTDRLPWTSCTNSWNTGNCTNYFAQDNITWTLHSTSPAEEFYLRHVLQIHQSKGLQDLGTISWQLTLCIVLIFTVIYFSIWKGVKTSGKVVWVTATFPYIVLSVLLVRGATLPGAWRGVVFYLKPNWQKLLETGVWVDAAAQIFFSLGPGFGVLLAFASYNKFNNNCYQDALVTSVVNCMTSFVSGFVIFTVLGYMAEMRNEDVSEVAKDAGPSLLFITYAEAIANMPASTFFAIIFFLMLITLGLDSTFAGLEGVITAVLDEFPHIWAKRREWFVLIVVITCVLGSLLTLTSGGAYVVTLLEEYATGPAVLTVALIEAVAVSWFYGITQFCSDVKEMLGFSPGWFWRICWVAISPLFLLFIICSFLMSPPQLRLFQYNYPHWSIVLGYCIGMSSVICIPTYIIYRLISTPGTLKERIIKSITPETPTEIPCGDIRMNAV
# T1 sequence (Q63380 1-617): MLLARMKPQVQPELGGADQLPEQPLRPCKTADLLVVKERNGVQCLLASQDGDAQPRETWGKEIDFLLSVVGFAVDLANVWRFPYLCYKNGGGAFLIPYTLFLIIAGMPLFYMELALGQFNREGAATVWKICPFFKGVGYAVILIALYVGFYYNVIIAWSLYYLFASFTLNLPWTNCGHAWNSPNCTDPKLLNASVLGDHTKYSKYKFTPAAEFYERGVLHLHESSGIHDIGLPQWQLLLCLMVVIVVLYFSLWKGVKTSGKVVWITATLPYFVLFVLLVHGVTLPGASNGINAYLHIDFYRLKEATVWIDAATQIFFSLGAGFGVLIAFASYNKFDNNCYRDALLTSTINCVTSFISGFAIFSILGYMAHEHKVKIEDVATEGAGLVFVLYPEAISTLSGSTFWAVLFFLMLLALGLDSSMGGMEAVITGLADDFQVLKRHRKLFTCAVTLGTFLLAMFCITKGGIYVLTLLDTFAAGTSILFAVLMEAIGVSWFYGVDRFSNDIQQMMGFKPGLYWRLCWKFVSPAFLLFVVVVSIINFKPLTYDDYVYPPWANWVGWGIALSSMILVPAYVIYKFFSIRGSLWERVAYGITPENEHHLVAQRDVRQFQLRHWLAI
# T2 sequence (P23977 whole entry): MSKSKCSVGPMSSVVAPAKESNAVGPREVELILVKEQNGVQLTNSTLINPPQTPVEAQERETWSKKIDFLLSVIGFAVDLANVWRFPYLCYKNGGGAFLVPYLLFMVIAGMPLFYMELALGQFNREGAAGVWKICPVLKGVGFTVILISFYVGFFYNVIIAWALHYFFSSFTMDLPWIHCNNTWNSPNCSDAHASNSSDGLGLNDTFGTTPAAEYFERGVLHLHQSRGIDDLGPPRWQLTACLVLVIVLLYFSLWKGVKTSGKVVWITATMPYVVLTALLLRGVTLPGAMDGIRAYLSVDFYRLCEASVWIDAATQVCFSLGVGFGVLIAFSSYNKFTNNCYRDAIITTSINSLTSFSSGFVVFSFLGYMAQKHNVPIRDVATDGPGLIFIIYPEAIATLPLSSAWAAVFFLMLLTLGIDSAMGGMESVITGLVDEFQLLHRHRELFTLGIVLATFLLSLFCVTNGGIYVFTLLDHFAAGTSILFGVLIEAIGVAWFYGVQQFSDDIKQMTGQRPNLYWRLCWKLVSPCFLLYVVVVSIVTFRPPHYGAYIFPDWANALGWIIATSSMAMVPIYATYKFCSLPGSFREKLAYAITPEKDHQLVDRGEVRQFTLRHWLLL
smiles,measurement,setting,value
"CN1CC=C(C(c2ccccc2)c2ccccc2)CC1 (as salt: fumaric acid salt) [4-Benzhydryl-1-methyl-1,2,3,6-tetrahydro-pyridine]",melting point,,177.6 to 179.2 °C
"C1=C(C(c2ccccc2)c2ccccc2)CCNC1 [4-Benzhydryl-1,2,3,6-tetrahydro-pyridine]",IC50,[1],45 nM
same,IC50,[2],63 nM
same,IC50,[3],3.5 nM
"CN1CC=C(C(c2ccccc2)c2ccccc2)CC1 [4-Benzhydryl-1-methyl-1,2,3,6-tetrahydro-pyridine]",IC50,"[1]; synaptosomes, 3H-NA, read-out: NA-uptake IC50",600 nM
same,IC50,"[2]; synaptosomes, 3H-DA, read-out: DA-uptake IC50",580 nM
same,IC50,"[3]; synaptosomes, 3H-5-HT, read-out: 5-HT-uptake IC50",> 1000 nM
